Measured values from patent US6358885B1, “Substituted phenylheterocyclic herbicides” (Mississippi State University, priority 1992, dated 2002).

Columns and labels:
morningglory = assay: Test B preemergence/postemergence greenhouse plant response rating 0 to 10; assay type: in vivo, Ipomoea hederacea; details: 0 to 10 scale
Summary of the method: (§1)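 Test chemicals, dissolved in a non-phytotoxic solvent, were applied to soil at planting and, at the same time, over foliage of seedlings at the one to four leaf stage.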

wild oat = assay: as above; assay type: in vivo, Avena fatua; details: 0 to 10 scale
Summary of the method: as §1

crabgrass = assay: Test C preemergence/postemergence greenhouse plant response rating 0 to 100; assay type: in vivo, Digitaria sanguinalis; details: for Plant response rating, Crabgrass: 0 to 100 scale
Text: (§2) The compounds evaluated in this test were formulated in a non-phytoxic solvent and applied to the soil surface before plant seedlings emerged (preemergence application), to water that covered the soil surface (flood application), and to plants that were in the one-to-four leaf stage (postemergence application). A sandy loam soil was used for the preemergence and postemergence tests, while a silt loam soil was used in the flood test. Water depth was approximately 2.5 cm for the flood test and was maintained at this level for the duration of the test. Plant species in the preemergence and postemergence tests consisted of barley (Hordeum vulgare), bedstraw (Galium aparine), blackgrass (Alopecurus myosuroides), chickweed (Stellaria media), corn (Zea mays), cotton (Gossypium hirsutum), crabgrass (Digitaria sanguinalis), downy brome (Bromus tectorum), giant foxtail (Setaria faberii), lambsquarters (Chenopodium album), morningglory (Ipomoea hederacea), pigweed ([…]), rape (Brassica napus), ryegrass (Lolium multiflorum), sorghum (Sorghum bicolor), soybean (Glycine max), speedwell (Veronica persica), sugar beet (Beta vulgaris), velvetleaf (Abutilon theophrasti), wheat (Triticum aestivum), wild buckwheat (Polygonum convolvulus), and wild oat (Avena fatua). All plant species were planted one day before application of the compound for the preemergence portion-of this test. Plantings of these species were adjusted to produce plants of appropriate size for the post-emergence portion of the test. […] All plant species were grown using normal greenhouse practices. Visual evaluations of injury expressed on treated plants, when compared to untreated controls, were recorded approximately fourteen to twenty one days after application of the test compound. […] A dash (-) response means no test result.

sorghum = assay: Test B preemergence/postemergence greenhouse plant response rating 0 to 10; assay type: in vivo, Sorghum bicolor; details: 0 to 10 scale
Summary of the method: as §1

blackgrass = assay: Test C preemergence/postemergence greenhouse plant response rating 0 to 100; assay type: in vivo, Alopecurus myosuroides; details: for Plant response rating, Blackgrass: 0 to 100 scale
Text: as §2

cocklebur = assay: Test B preemergence/postemergence greenhouse plant response rating 0 to 10; assay type: in vivo, Xanthium pensylvanicum; details: 0 to 10 scale
Summary of the method: as §1

rape = assay: Test C preemergence/postemergence greenhouse plant response rating 0 to 100; assay type: in vivo, Brassica napus; details: for Plant response rating, Rape: 0 to 100 scale
Text: as §2

wheat = assay: Test B preemergence/postemergence greenhouse plant response rating 0 to 10; assay type: in vivo, Triticum aestivum; details: 0 to 10 scale
Summary of the method: as §1

barnyardgrass = assay: as above; assay type: in vivo, Echinochloa crus-galli; details: 0 to 10 scale
Summary of the method: as §1

rice = assay: as above; assay type: in vivo, Oryza sativa; details: 0 to 10 scale
Summary of the method: as §1

cotton = assay: as above; assay type: in vivo, Gossypium hirsutum; details: 0 to 10 scale
Summary of the method: as §1

SMILES	Plant response rating, Morningglory (morningglory; POSTEMERGENCE, Rate 10 g/ha)	Plant response rating, Morningglory (morningglory; POSTEMERGENCE, Rate 50 g/ha)	Plant response rating, Morningglory (morningglory; PREEMERGENCE, Rate 50 g/ha)	Plant response rating, Wild oat (wild oat; POSTEMERGENCE, Rate 10 g/ha)	Plant response rating, Wild oat (wild oat; POSTEMERGENCE, Rate 50 g/ha)	Plant response rating, Wild oat (wild oat; PREEMERGENCE, Rate 50 g/ha)	Plant response rating, Sorghum (sorghum; POSTEMERGENCE, Rate 10 g/ha)	Plant response rating, Sorghum (sorghum; POSTEMERGENCE, Rate 50 g/ha)	Plant response rating, Sorghum (sorghum; PREEMERGENCE, Rate 50 g/ha)	Plant response rating, Cocklebur (cocklebur; POSTEMERGENCE, Rate 10 g/ha)	Plant response rating, Cocklebur (cocklebur; POSTEMERGENCE, Rate 50 g/ha)	Plant response rating, Cocklebur (cocklebur; PREEMERGENCE, Rate 10 g/ha)	Plant response rating, Cocklebur (cocklebur; PREEMERGENCE, Rate 50 g/ha)	Plant response rating, Wheat (wheat; POSTEMERGENCE, Rate 10 g/ha)	Plant response rating, Wheat (wheat; POSTEMERGENCE, Rate 50 g/ha)	Plant response rating, Wheat (wheat; PREEMERGENCE, Rate 50 g/ha)	Plant response rating, Barnyardgrass (barnyardgrass; POSTEMERGENCE, Rate 10 g/ha)	Plant response rating, Barnyardgrass (barnyardgrass; POSTEMERGENCE, Rate 50 g/ha)	Plant response rating, Barnyardgrass (barnyardgrass; PREEMERGENCE, Rate 10 g/ha)	Plant response rating, Barnyardgrass (barnyardgrass; PREEMERGENCE, Rate 50 g/ha)	also measured
C#CCN1C(=O)COc2cc(F)c(-c3nn4c(c3Br)CCCC4)cc21 [Compound 56]	10	9	6	6	6	5	3	2	0	10	10	2	2	7	7	4	3	4	0	0	Plant response rating, Crabgrass (crabgrass; POSTEMERGENCE, 62 g/ha): 20; Plant response rating (0 to 100), Crabgrass (crabgrass; POSTEMERGENCE, Rate 1 g/ha): 0; Plant response rating (0 to 100), Crabgrass (crabgrass; POSTEMERGENCE, Rate 4 g/ha): 0; Plant response rating (0 to 100), Crabgrass (crabgrass; Rate 16 g/ha, POSTEMERGENCE): 10; Plant response rating, Blackgrass (blackgrass; POSTEMERGENCE, 62 g/ha): 80; Plant response rating (0 to 100), Blackgrass (blackgrass; POSTEMERGENCE, Rate 1 g/ha): 30; Plant response rating (0 to 100), Blackgrass (blackgrass; POSTEMERGENCE, Rate 4 g/ha): 40; Plant response rating (0 to 100), Blackgrass (blackgrass; Rate 16 g/ha, POSTEMERGENCE): 65; Plant response rating, Rape (rape; POSTEMERGENCE, 62 g/ha): 100; Plant response rating (0 to 100), Rape (rape; POSTEMERGENCE, Rate 1 g/ha): 100; Plant response rating (0 to 100), Rape (rape; POSTEMERGENCE, Rate 4 g/ha): 100; Plant response rating (0 to 100), Rape (rape; Rate 16 g/ha, POSTEMERGENCE): 100; Plant response rating, Rice (rice; POSTEMERGENCE, Rate 10 g/ha): 3; Plant response rating, Rice (rice; POSTEMERGENCE, Rate 50 g/ha): 4; Plant response rating, Rice (rice; PREEMERGENCE, Rate 50 g/ha): 0; Plant response rating, Cotton (cotton; POSTEMERGENCE, Rate 10 g/ha): 10; Plant response rating, Cotton (cotton; POSTEMERGENCE, Rate 50 g/ha): 10; Plant response rating, Cotton (cotton; PREEMERGENCE, Rate 10 g/ha): 0; Plant response rating, Cotton (cotton; PREEMERGENCE, Rate 50 g/ha): 0
CCCN1C(=O)COc2cc(F)c(-c3nn4c(c3Br)CCCC4)cc21 [Compound 63]	8	10	0	4	6	3	3	5	0	8	9	0	0	4	5	2	3	5	0	0	Plant response rating, Crabgrass (crabgrass; PREEMERGENCE, 62 g/ha): 0; Plant response rating, Crabgrass (crabgrass; PREEMERGENCE, 250 g/ha): 70; Plant response rating (0 to 100), Crabgrass (crabgrass; PREEMERGENCE, Rate 4 g/ha): 0; Plant response rating (0 to 100), Crabgrass (crabgrass; Rate 16 g/ha, PREEMERGENCE): 0; Plant response rating, Blackgrass (blackgrass; PREEMERGENCE, 62 g/ha): 50; Plant response rating, Blackgrass (blackgrass; PREEMERGENCE, 250 g/ha): 90; Plant response rating (0 to 100), Blackgrass (blackgrass; PREEMERGENCE, Rate 4 g/ha): 10; Plant response rating (0 to 100), Blackgrass (blackgrass; Rate 16 g/ha, PREEMERGENCE): 30; Plant response rating, Rape (rape; PREEMERGENCE, 62 g/ha): 85; Plant response rating, Rape (rape; PREEMERGENCE, 250 g/ha): 100; Plant response rating (0 to 100), Rape (rape; PREEMERGENCE, Rate 4 g/ha): 0; Plant response rating (0 to 100), Rape (rape; Rate 16 g/ha, PREEMERGENCE): 20; Plant response rating, Rice (rice; POSTEMERGENCE, Rate 10 g/ha): 3; Plant response rating, Rice (rice; POSTEMERGENCE, Rate 50 g/ha): 5; Plant response rating, Rice (rice; PREEMERGENCE, Rate 50 g/ha): 0; Plant response rating, Cotton (cotton; POSTEMERGENCE, Rate 10 g/ha): 9; Plant response rating, Cotton (cotton; POSTEMERGENCE, Rate 50 g/ha): 10; Plant response rating, Cotton (cotton; PREEMERGENCE, Rate 10 g/ha): 0; Plant response rating, Cotton (cotton; PREEMERGENCE, Rate 50 g/ha): 2
